Test results reported in ChEMBL document CHEMBL4627407, “Identification of a Potent Oridonin Analogue for Treatment of Triple-Negative Breast Cancer” (J Med Chem, 2020).

Columns and labels:
[1] = Toxicity in ICR mouse assessed as induction of morphological changes in spleen at 25 mg/kg, iv administered once per day for 23 consecutive days; assay type: organism-based; conditions: in vivo
[2] = molecular target: T1, M-phase inducer phosphatase 3 (Homo sapiens) (UniProt P30307); experiment: Inhibition of cdc25c in human HCC1806 cells assessed as increase in cdc25c phosphorylation at ser216 residue by western blot analysis; assay type: cell-based
T1 sequence (whole entry): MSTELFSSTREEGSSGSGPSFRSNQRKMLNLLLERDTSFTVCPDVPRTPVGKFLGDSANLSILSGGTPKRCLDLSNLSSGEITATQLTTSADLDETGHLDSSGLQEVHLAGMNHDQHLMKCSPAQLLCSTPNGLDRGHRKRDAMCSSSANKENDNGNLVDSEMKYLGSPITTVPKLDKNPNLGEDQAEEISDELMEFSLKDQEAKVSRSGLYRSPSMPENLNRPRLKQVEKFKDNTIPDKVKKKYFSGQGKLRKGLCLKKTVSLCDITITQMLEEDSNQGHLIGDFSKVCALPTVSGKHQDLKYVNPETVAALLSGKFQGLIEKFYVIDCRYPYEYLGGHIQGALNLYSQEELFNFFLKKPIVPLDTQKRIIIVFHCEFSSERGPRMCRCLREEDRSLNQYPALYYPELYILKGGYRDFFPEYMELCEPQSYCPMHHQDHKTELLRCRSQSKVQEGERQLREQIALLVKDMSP

HCC1806 = experiment: Induction of apoptosis in human HCC1806 cells assessed as viable cells at 50 uM after 48 hrs by Annexin V-FITC/propidium iodide double staining based flow cytometry (reference value: 95.7%); assay type: functional; conditions: HCC1806, 48 h, read-out: Activity

For `C=C1C(=O)[C@@]23C(=O)[C@@H]4OC[C@]5(C=CCC(C)(C)[C@@H]45)[C@@H]2CC[C@@H]1[C@H]3OC(=O)/C=C/c1ccncc1`, the Activity [1] was “Non-Toxic”, the inhibition [2] was “Dose-dependent effect” and the viability at 50 µM (HCC1806) was 82.2%.
